US10280170B2, “Substituted 4,5,6,7-tetrahydro-pyrazolo[1,5-a]pyrazine derivatives and 5,6,7,8-tetrahydro-4H-pyrazolo[1,5-a][1,4]diazepine derivatives as Ros1 inhibitors” (Janssen Pharmaceutica NV, priority 2014, dated 2019)
Where two headings read alike, the source gives them in different places.

Assays:
[1] = biological target: T1, Ba/F3 cells containing Ros1 wild-type protein (Homo sapiens, UniProt P08922, cells depend on it, form not given); test: Ba/F3-Ros1 cell proliferation assay, wild-type Ros1; format: cell-based, murine; conditions: without IL-3
T1 construct: The background only speaks of 'a number of different unrelated proteins' and names SLC34A2-ROS1 for HCC78 cells
Method: (§1) Ba/F3-Ros1 Cell Proliferation Assay
(§2) This assay was carried out with Ba/F3 cells containing three different versions of Ros1: the wild-type protein, protein with a mutation at the gatekeeper residue (L2026M), and protein with a mutation identified in a tumor from a patient that became resistant to crizotinib (Xalkori®) treatment (G2032R). Compounds were solubilized in 100% DMSO (dimethyl sulfoxide) and sprayed into polystyrene, tissue culture treated 384-well plates. A 50 μl volume of cell culture medium (phenol red free RPMI-1640, 10% FBS (fetal bovine serum), 2 mM L-Glutamine) containing 20000 Ba/F3-Ros1 cells was added to each well and the plates were placed in an incubator at 37° C. and 5% CO2. After 24 hours, 10 μl of Alamar Blue solution (0.5 mM K3Fe(CN)6, 0.5 mM K4Fe(CN)6, 0.15 mM Resazurin and 100 mM Phosphate Buffer) was added to the wells, incubated for 4 hours at 37° C. and 5% CO2 before RFU's (Relative Fluorescence Units) (ex. 540 nm., em. 590 nm.) were measured in a fluorescence plate reader.

[2] = tested on: Ba/F3 cells containing Ros1 wild-type protein + IL-3; test: Ba/F3-Ros1 cell proliferation counter-screen, wild-type protein in the presence of 10 ng/ml murine IL-3; format: cell-based; conditions: Mus musculus, BaF3, 24 h, read-out: BaF3-ROS1 + IL3 pIC50 (converted)
Method: as §2
As a counter-screen the same experiment was performed for the wild-type protein in the presence of 10 ng/ml murine IL-3.

Ros1 enzyme = biological target: T2, Ros1 enzyme (Homo sapiens, UniProt P08922); test: Ros1 enzymatic assay; format: biochemical; conditions: Ros1 enzymatic assay; for IC50: read-out: ROS1 pIC50 (converted)
T2 construct: 0.5 μg/ml Ros1 enzyme
Method: Compounds were spotted onto white 384-well Proxiplate plus plates (Perkin Elmer) to which 5 μl of enzyme mix (0.5 μg/ml Ros1 enzyme, 50 mM Tris-HCl pH7.5, 1 mM EGTA, 10 mM MgCl2, 0.01% Tween-20) and 5 μl of substrate mix (6 μg/ml IRS-Tide [American Peptide Company], 20 μM ATP, 13.33 μCi/ml ATP (adenosine 5′-triphosphate) P^33, 50 mM Tris-HCl pH7.5, 1 mM EGTA (ethylene glycol-bis(2-aminoethylether)-N,N,N′,N′-tetraacetic acid), 10 mM MgCl2, 0.01% Tween-20) were added. After incubation for 120 minutes at room temperature, 10 μl of stop reaction buffer (5 mM EDTA, 50 μM ATP, 0.1% BSA (bovine serum albumin), 0.1% Triton X-100, 50 mM Tris-HCl pH7.5, 1 mM EGTA, 10 mM MgCl2, 0.01% Tween-20) containing 2 mg/ml streptavidin coupled polystyrene imaging beads (Amersham Biosciences) was added and incubated for 15 minutes at room temperature. Plates were centrifuged for 3 minutes at 1500 rpm and signals detected in a LEADseeker imaging system (GE).

[3] = biological target: Ba/F3 cells containing Ros1 with a mutation at the gatekeeper residue (L2026M) (Homo sapiens, UniProt P08922, L2026M, cells depend on it, form not given); test: Ba/F3-Ros1 cell proliferation assay, L2026M gatekeeper mutant; format: cell-based, murine; conditions: without IL-3
Method: as §1, §2

[4] = counter-screen, wild-type, 10 ng/ml murine IL-3

T2 sequence (P08922 28-2347): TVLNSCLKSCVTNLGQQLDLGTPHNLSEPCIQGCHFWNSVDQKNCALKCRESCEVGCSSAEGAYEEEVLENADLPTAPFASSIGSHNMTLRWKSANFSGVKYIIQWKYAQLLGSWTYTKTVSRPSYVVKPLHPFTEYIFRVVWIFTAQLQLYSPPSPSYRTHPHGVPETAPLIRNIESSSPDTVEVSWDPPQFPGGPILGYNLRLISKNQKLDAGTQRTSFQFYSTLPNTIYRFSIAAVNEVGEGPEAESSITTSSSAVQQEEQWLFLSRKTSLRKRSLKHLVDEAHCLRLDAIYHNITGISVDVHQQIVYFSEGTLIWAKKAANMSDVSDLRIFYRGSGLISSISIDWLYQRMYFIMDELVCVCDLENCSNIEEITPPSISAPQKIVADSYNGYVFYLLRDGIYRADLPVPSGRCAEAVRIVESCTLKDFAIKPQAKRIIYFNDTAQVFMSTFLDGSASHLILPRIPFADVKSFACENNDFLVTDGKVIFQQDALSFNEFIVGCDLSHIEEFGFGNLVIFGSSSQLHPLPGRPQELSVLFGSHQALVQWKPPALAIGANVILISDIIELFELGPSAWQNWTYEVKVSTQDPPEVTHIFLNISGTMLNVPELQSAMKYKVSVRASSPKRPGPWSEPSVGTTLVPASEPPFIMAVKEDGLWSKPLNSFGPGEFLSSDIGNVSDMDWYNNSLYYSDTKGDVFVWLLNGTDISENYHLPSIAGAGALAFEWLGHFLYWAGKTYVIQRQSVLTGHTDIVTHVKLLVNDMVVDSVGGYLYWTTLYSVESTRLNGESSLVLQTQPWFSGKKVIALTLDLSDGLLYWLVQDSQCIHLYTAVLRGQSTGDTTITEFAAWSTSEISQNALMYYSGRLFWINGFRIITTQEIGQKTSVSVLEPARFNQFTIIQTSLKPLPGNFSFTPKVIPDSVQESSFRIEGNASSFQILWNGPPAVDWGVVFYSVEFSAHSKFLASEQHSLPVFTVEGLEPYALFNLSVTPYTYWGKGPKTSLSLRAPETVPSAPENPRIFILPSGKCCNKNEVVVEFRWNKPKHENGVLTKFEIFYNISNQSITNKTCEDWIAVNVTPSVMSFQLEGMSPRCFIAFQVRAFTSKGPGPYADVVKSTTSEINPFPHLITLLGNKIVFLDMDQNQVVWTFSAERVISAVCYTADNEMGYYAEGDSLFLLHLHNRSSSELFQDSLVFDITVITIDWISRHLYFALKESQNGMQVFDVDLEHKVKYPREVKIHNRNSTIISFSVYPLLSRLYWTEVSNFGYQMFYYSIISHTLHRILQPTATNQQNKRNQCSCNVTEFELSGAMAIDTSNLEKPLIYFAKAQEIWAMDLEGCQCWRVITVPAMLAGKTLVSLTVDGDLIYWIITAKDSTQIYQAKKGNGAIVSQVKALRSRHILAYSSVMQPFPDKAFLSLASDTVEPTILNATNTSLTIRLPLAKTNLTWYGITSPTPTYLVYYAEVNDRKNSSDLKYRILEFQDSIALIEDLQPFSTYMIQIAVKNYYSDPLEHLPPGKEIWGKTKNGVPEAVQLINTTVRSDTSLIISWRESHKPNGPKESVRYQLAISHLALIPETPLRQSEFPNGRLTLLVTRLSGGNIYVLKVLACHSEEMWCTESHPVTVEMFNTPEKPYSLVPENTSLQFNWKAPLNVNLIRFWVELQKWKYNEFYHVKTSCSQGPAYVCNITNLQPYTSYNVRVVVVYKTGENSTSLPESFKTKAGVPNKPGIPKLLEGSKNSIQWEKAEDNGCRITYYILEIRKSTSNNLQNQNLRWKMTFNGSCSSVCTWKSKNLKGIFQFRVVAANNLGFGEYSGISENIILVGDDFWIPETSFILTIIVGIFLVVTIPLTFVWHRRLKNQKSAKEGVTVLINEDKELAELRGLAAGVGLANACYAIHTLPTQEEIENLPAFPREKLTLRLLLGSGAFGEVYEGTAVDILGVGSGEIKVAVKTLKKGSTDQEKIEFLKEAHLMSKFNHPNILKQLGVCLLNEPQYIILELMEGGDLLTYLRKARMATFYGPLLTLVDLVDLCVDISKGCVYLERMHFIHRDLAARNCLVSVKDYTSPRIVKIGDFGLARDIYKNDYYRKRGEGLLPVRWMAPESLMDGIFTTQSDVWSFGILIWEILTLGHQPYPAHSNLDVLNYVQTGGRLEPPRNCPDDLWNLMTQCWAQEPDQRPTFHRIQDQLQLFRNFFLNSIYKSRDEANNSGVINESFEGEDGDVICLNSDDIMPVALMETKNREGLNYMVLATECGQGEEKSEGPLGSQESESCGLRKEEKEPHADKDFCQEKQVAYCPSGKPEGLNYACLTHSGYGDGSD
T1 sequence (P08922 whole entry, stated change not applied): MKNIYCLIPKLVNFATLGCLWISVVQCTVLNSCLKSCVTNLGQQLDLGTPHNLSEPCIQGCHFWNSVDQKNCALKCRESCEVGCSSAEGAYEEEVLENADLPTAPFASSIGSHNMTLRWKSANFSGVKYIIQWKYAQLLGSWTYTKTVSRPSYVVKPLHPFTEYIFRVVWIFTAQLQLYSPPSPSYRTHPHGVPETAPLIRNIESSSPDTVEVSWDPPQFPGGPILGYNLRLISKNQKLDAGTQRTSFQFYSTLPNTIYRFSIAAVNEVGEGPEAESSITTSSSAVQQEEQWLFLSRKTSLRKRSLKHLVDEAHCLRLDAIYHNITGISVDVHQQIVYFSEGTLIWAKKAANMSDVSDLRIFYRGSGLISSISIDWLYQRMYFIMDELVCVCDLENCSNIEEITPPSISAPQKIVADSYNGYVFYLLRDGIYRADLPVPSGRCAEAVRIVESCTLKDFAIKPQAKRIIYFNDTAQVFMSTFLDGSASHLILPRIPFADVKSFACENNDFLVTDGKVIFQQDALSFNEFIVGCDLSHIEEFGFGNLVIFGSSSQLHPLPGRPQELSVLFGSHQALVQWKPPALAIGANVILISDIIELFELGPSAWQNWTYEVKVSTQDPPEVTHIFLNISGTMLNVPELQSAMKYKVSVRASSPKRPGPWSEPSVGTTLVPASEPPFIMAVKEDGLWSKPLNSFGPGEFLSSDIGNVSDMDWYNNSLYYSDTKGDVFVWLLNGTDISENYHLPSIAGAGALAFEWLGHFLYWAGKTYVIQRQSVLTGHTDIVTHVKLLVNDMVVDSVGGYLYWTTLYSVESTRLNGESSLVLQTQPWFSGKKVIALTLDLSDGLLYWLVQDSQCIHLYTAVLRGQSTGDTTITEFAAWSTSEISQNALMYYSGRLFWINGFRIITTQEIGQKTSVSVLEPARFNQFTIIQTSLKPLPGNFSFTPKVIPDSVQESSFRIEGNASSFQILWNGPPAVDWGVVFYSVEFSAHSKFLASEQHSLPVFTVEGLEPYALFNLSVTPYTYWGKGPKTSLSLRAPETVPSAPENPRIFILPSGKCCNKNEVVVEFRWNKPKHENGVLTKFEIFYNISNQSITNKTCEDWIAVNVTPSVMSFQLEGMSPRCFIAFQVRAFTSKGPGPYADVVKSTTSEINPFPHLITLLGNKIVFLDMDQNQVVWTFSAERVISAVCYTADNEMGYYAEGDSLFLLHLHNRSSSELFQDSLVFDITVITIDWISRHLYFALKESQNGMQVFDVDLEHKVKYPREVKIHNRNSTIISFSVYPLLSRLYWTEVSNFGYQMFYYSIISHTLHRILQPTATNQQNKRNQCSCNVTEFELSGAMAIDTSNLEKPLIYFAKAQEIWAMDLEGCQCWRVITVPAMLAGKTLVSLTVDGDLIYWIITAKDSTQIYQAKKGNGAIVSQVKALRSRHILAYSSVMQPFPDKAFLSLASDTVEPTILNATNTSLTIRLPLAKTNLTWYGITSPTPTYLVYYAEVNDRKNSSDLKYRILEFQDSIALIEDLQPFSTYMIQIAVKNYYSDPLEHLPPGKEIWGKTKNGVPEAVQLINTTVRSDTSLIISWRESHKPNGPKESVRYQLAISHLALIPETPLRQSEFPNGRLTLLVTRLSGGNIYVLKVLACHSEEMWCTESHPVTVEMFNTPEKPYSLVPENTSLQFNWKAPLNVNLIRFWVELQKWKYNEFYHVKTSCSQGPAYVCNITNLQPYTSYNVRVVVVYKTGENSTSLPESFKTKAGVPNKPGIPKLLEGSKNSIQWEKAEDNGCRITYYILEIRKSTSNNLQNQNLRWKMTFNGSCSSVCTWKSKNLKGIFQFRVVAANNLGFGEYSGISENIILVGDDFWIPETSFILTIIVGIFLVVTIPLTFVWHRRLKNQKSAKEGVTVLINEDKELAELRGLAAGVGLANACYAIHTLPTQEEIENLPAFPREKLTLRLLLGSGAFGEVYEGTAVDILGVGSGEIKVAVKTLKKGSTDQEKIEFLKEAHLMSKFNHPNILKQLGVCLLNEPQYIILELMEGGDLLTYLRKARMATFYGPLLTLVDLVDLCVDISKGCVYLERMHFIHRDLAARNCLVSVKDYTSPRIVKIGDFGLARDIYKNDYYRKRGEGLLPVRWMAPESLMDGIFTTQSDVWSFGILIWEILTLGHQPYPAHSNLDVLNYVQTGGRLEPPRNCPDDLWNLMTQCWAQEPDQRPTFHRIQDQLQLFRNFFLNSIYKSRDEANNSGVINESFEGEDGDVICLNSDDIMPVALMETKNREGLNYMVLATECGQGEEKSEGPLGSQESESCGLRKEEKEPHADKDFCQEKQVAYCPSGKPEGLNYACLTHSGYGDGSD
Sequence of Ba/F3 cells containing Ros1 with a mutation at the gatekeeper residue (L2026M) (P08922 whole entry L2026M, form open): as the sequence (P08922 whole entry, stated change not applied) above, with L2026M counted along it

Compound | BaF3-ROS1-IL3 pIC50 [1] | CC50 [2, 4] [nM] | melting point [°C] | IC50 (Ros1 enzyme) [nM] | CC50 [2] [nM] | ROS1 pIC50 (Ros1 enzyme) | Ba/F3 Ros1 L2026M (-IL-3) pIC50 [3]
COC(=O)c1ccc(COc2ccc(-c3c(-c4ccncc4)nn4c3C(=O)NCC4)cc2)cc1 [Compound 9a] | <5 | > 10000 | 254 | 2510 | – | – | –
CC(C)c1ccc(COc2ccc(-c3c(-c4ccnc(N)n4)nn4c3C(=O)NCC4)cc2)cc1 [Compound 13] | 7.5 | – | – | 20 | > 10000 | – | –
CC(C)c1ccc(COc2cc(F)c(-c3c(-c4ccncc4)nn4c3C(=O)NCC4)c(F)c2)cc1 [Compound 17] | 6.8 | – | 235 | 501 | > 10000 | – | –
COc1cc(OCc2ccc(C(C)C)cc2)ccc1-c1c(-c2ccncc2)nn2c1C(=O)NCC2 [Compound 34] | 6.6 | – | 276 | 316 | > 10000 | – | –
CC(C)Oc1cc(-c2c(-c3ccncc3)nn3c2C(=O)NCC3)ccc1OCc1ccc(C(C)C)cc1 [Compound 37] | 5.4 | – | 206 | 2510 | > 10000 | – | –
CC(C)c1ccc(COc2ccc(-c3c(-c4ccncc4)nn4c3C(=O)N(CCC#N)CC4)cc2)cc1 [Compound 57] | 7.7 | – | 158 | 25.1 | > 10000 | – | –
CC(C)c1ccc(COc2ccc(-c3c(-c4ccncc4)nn4c3C(=O)N(CCN)CC4)cc2)cc1 [Compound 59a] | 6.6 | – | – | – | – | 7.2 | –
CC(C)c1ccc(COc2ccc(-c3c(-c4ccncc4)nn4c3C(=O)N(CC(=O)O)CC4)cc2)cc1 [Compound 66] | 5.1 | – | – | 251 | > 10000 | – | –
COc1cc(COc2ccc(-c3c(-c4ccncc4)nn4c3C(=O)NCC4)cc2)ccc1C(C)C [Compound 80] | 6.9 | – | 232 | 126 | > 10000 | – | –
CC(C)c1ccc(COc2ccc(-c3c(-c4ccncc4)nn4c3C(=O)N(C)CC4)cc2)cc1CCO [Compound 82] | 7.6 | – | – | 10 | > 10000 | – | 7.3
COCCOc1cc(COc2ccc(-c3c(-c4ccncc4)nn4c3C(=O)NCC4)cc2)ccc1C [Compound 104] | 6.1 | – | 190 | 1260 | > 10000 | – | –
CCC(C)c1ccc(COc2ccc(-c3c(-c4ccncc4)nn4c3C(=O)NCC4)cc2)cc1 (centres unmarked) [Compound 106] | 7.5 | – | 229 | 25.1 | > 10000 | – | –
CC(C)Cc1ccc(COc2ccc(-c3c(-c4ccncc4)nn4c3C(=O)NCC4)cc2)cc1 [Compound 108] | 7.0 | – | 233 | 126 | > 10000 | – | –
CC(C)c1cccc(COc2ccc(-c3c(-c4ccncc4)nn4c3C(=O)NCC4)cc2)c1 [Compound 110] | 6.9 | – | 268 | 126 | > 10000 | – | –
COc1cccc(COc2ccc(-c3c(-c4ccncc4)nn4c3C(=O)NCC4)cc2)c1 [Compound 113] | 6.0 | > 10000 | 242 | 794 | – | – | –
CC(C)Oc1ccc(COc2ccc(-c3c(-c4ccncc4)nn4c3C(=O)NCC4)cc2)cc1 [Compound 114] | 6.4 | – | 252 | 501 | > 10000 | – | –
O=C1NCCn2nc(-c3ccncc3)c(-c3ccc(OCc4ccc(OC(F)F)cc4)cc3)c21 [Compound 118] | 7.1 | – | 250 | 158 | > 10000 | – | –
O=C1NCCn2nc(-c3ccncc3)c(-c3ccc(OCc4cccc(C(F)(F)F)c4)cc3)c21 [Compound 120] | 6.6 | – | 293 | 251 | > 10000 | – | –
N#Cc1cccc(COc2ccc(-c3c(-c4ccncc4)nn4c3C(=O)NCC4)cc2)c1 [Compound 124] | 5.7 | – | 238 | 2000 | > 10000 | – | –

Compound | BaF3-ROS1-IL3 pIC50 [1] | CC50 [2, 4] [nM] | melting point [°C] | IC50 (Ros1 enzyme) [nM] | CC50 [2] [nM] | ROS1 pIC50 (Ros1 enzyme) | Ba/F3 Ros1 L2026M (-IL-3) pIC50 [3]
CC(C)(CO)c1ccc(COc2ccc(-c3c(-c4ccncc4)nn4c3C(=O)NCC4)cc2)cc1 [Compound 125] | 6.7 | – | 280 | 316 | > 10000 | – | –
CC(CO)c1ccc(COc2ccc(-c3c(-c4ccncc4)nn4c3C(=O)NCC4)cc2)cc1 (centres unmarked) [Compound 127] | 6.6 | – | 259 | 398 | > 10000 | – | –
O=C1NCCn2nc(-c3ccncc3)c(-c3ccc(OCc4ccccc4)cc3)c21 [Compound 130] | 5.8 | – | 260 | 3160 | > 10000 | – | –
COC(=O)c1cccc(COc2ccc(-c3c(-c4ccncc4)nn4c3C(=O)NCC4)cc2)c1 [Compound 131] | 6.2 | – | 222 | 631 | > 10000 | – | –
NCc1cccc(COc2ccc(-c3c(-c4ccncc4)nn4c3C(=O)NCC4)cc2)c1 [Compound 133] | 5.6 | > 10000 | – | > 10000 | – | – | –
CC(C)c1ccc(COc2ccc(-c3c(-c4ccncc4)nn4c3CN(CC(=O)N3CCCC3)CC4)cc2)cc1 [Compound 179] | 6.4 | > 10000 | – | 501 | – | – | –
CC(O)C(=O)N1CCn2nc(-c3ccncc3)c(-c3ccc(OCc4ccc(C(C)C)cc4)cc3)c2C1 (centres unmarked) [Compound 180] | 6.5 | > 10000 | – | 501 | – | – | –
CNCC(=O)N1CCn2nc(-c3ccncc3)c(-c3ccc(OCc4ccc(C(C)C)cc4)cc3)c2C1 [Compound 182] | 5.7 | 5010 | – | 1260 | – | – | –
COc1ccc(COc2ccc(-c3c(-c4ccncc4)nn4c3CNCC4)cc2)cc1 [Compound 188] | 5.5 | > 10000 | – | 3980 | – | – | –
CC1Cn2nc(-c3ccncc3)c(-c3ccc(OCc4ccc(C5CC5)cc4)cc3)c2CN1 (centres unmarked) [Compound 190] | 6.1 | > 10000 | – | 631 | – | – | –
CC(C)c1ccc(COC2CCN(c3c(-c4ccncc4)nn4c3C(=O)NCC4)CC2)cc1 [Compound 198] | 6.6 | – | – | 251 | > 10000 | – | –
CC(C)c1ccc(COc2ccc(-c3c(-c4ccncc4)nn4c3C(=O)NCC4)c(F)c2)cc1CCO [Compound 204] | 7.9 | – | – | 6.31 | > 10000 | – | 7.8
CC(C)c1ccc(COc2ccc(-c3c(-c4ccncc4)nn4c3C(=O)N(CCO)CC4)cn2)cc1 [Compound 212] | 7.3 | – | – | 39.8 | > 10000 | – | 6.8
CC(C)c1ccc(C(Oc2ccc(-c3c(-c4ccncc4)nn4c3C(=O)NCC4)cc2)C(=O)NCCO)cc1 (centres unmarked) [Compound 218] | 6.3 | – | – | 200 | > 10000 | – | –
CC(C)c1ccc(COc2ccc(-c3c(-c4ccncn4)nn4c3CN(CCO)CC4)cc2)cc1 [Compound 220] | 6.5 | > 10000 | – | 501 | – | – | –
CC(C)c1ccc(C2CNc3cc(-c4c(-c5ccncc5)nn5c4C(=O)NCC5)cnc3O2)cc1 (centres unmarked) [Compound 223] | 6.5 | – | – | 398 | > 10000 | – | –
CC(C)c1ccc(C2CNc3cc(-c4c(-c5ccncc5)nn5c4C(=O)NCC5)ccc3O2)cc1 (centres unmarked) [Compound 224] | 6.7 | > 10000 | – | 398 | – | – | –
CC(C)c1ccc(C2CNc3cc(-c4c(-c5ccncc5)nn5c4C(=O)NCC5)ccc3O2)cc1 (centres unmarked) [Compound 225] | 6.7 | – | – | 316 | – | – | –
